Measured values published in ChEMBL document CHEMBL3045410, “Synthesis and in vitro antitumor activity of 1-(3-dimethylamino)propyl indolin-2-one derivatives” (Med Chem Res, 2013).

What was measured:
HUVEC [1] = assay: Cytotoxicity against HUVECs assessed as growth inhibition by MTT assay; type: cell-based; conditions: Homo sapiens
A549 [2] = assay: Cytotoxicity against Homo sapiens (human) A549 cells assessed as growth inhibition by MTT assay; type: functional, cell-based
MDA-MB-231 [3] = assay: Cytotoxicity against Homo sapiens (human) MDA-MB-231 cells assessed as growth inhibition by MTT assay; type: functional, cell-based
A549 [4] = assay: Ratio of LK-B030 IC50 to compound IC50 for Homo sapiens (human) A549 cells; type: functional
MDA-MB-231 [5] = assay: Ratio of LK-B030 IC50 to compound IC50 for Homo sapiens (human) MDA-MB-231 cells; type: functional
K562 [6] = assay: Ratio of sunitinib IC50 to compound IC50 for Homo sapiens (human) K562 cells; type: functional
HL-60 [7] = assay: Ratio of sunitinib IC50 to compound IC50 for Homo sapiens (human) HL60 cells; type: functional
A549 [8] = assay: Ratio of sunitinib IC50 to compound IC50 for Homo sapiens (human) A549 cells; type: functional
MDA-MB-231 [9] = assay: Ratio of sunitinib IC50 to compound IC50 for Homo sapiens (human) MDA-MB-231 cells; type: functional
HUVEC [10] = assay: Cytotoxicity against VEGF-stimulated HUVECs assessed as growth inhibition by MTT assay; type: functional, cell-based; conditions: Homo sapiens
HUVEC [11] = assay: Cytotoxicity against recombinant Homo sapiens (human) basic FGF-stimulated HUVECs assessed as growth inhibition by MTT assay; type: functional, cell-based
IM-9 = assay: Cytotoxicity against Homo sapiens (human) IM9 cells assessed as growth inhibition by MTT assay; type: functional, cell-based
K562 [12] = assay: Cytotoxicity against Homo sapiens (human) K562 cells assessed as growth inhibition by MTT assay; type: functional, cell-based
HL-60 [13] = assay: Cytotoxicity against Homo sapiens (human) HL60 cells assessed as growth inhibition by MTT assay; type: functional, cell-based

SMILES | IC50 (HUVEC [1]) [µM] | IC50 (A549 [2]) [µM] | IC50 (MDA-MB-231 [3]) [µM] | Ratio IC50 (A549 [4]) | Ratio IC50 (MDA-MB-231 [5]) | Ratio IC50 (K562 [6]) | Ratio IC50 (HL-60 [7]) | Ratio IC50 (A549 [8]) | Ratio IC50 (MDA-MB-231 [9]) | IC50 (HUVEC [10]) [µM] | IC50 (HUVEC [11]) [µM] | IC50 (IM-9) [µM] | IC50 (K562 [12]) [µM] | IC50 (HL-60 [13]) [µM]
CCN(CC)CCNC(=O)c1c(C)[nH]c(/C=C2\C(=O)N(CCCN(C)C)c3ccc(Cl)cc32)c1C | 5.57 | – | – | – | – | – | – | – | – | – | – | – | – | –
CCOC(=O)c1c(C)[nH]c(/C=C2\C(=O)N(CCCN(C)C)c3ccc(Cl)cc32)c1C.Cl | 22 | 1.1 | 1.47 | 1.6 | 1.6 | 1.8 | 1.8 | 1.8 | 1.8 | 9.66 | 10.2 | 2.95 | 1.36 | 1.17
Cc1[nH]c(/C=C2\C(=O)N(CCCN(C)C)c3ccc(Cl)cc32)c(C)c1C(=O)N1CCOCC1 | 14.2 | 8.6 | 9.69 | – | – | – | – | – | – | 4.21 | 10.7 | 7.65 | 5.46 | 4.64
C/C(=C1/C(=O)N(CCCN(C)C)c2ccc(F)cc21)c1ccc[nH]1 | 13.9 | 8.27 | 5.92 | – | – | – | – | – | – | 9.71 | 8.83 | 6.68 | 6.41 | 7.99
CC/C(=C1/C(=O)N(CCCN(C)C)c2ccc(F)cc21)c1ccc[nH]1 | 22.2 | 16.9 | 10.6 | – | – | – | – | – | – | 9.57 | 9.75 | 11 | 8.82 | 10.3
CN(C)CCCN1C(=O)/C(=C(/c2ccccc2)c2ccc[nH]2)c2cc(F)ccc21 | 42.8 | 11.4 | 6.92 | – | – | – | – | – | – | 9.52 | 8.83 | 5.64 | 6.43 | 7.16
CN(C)CCCN1C(=O)C(=C(c2ccccc2)c2ccccc2)c2cc(F)ccc21 | 32.8 | 13.4 | 6.61 | – | – | – | – | – | – | 8.42 | 10.9 | 9.38 | 6.85 | 10.1
CCOC(=O)c1c(C)[nH]c(/C=C2\C(=O)N(CCCN(C)C)c3ccc(F)cc32)c1C | 8.56 | 1.55 | 3.86 | – | – | – | – | – | – | 10.1 | 1.81 | 3.21 | 1.54 | 1.36
Cc1[nH]c(/C=C2\C(=O)N(CCCN(C)C)c3ccc(F)cc32)c(C)c1C(=O)N1CCOCC1 | 29.4 | 21.7 | 14.7 | – | – | – | – | – | – | 9.11 | 22 | 61.5 | 57 | 13.2
CCN(CC)CCNC(=O)c1c(C)[nH]c(/C=C2\C(=O)Nc3ccc(F)cc32)c1C [SUNITINIB] | 3.9 | – | – | – | – | – | – | – | – | – | – | – | – | –
